pEC50: −log10 of the molar value.
Test system: Aβ42 secretion
Assay: Cellular γ-secretase assay (inhibition of Aβ42 secretion)
Assay type: cell-based
Details: Homo sapiens, 22 h, human neuroglioma H4 cells overexpressing human APP, 22 hours incubation
Outline: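 H4 neuroglioma cells overexpressing human APP were exposed to compounds (ten-point dilution series, 0.4% DMSO) for 22 h at 37°C. Secreted Aβ42 in supernatant measured by electrochemiluminescence sandwich immunoassay (ruthenylated BAP15 detection, biotinylated 6E10 capture on streptavidin beads). IC50 by nonlinear regression.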

SMILES	pEC50
COc1cccc(NC(=O)c2cc3cc(C4CCN(C(C)C)CC4)ccc3[nH]2)c1 [Example 25, 5-(1-Isopropyl-piperidin-4-yl)-1H-indole-2-carboxylic acid (3-methoxy-phenyl)-amide]	5.57
CCC1(c2ccc3[nH]c(C(=O)Nc4cc(F)cc(F)c4)cc3c2)CCC(=O)NC1=O (centres unmarked) [Example 19, 5-(3-Ethyl-2,6-dioxo-piperidin-3-yl)-1H-indole-2-carboxylic acid (3,5-difluoro-phenyl)-amide]	5.58
O=C(Nc1cccc(F)c1)c1cc2cc(C3CC(=O)N(Cc4ccccc4)C3=O)ccc2[nH]1 (centres unmarked) [Example 17, 5-(1-Benzyl-2,5-dioxopyrrolidin-3-yl)-N-(3-fluorophenyl)-1H-indole-2-carboxamide]	5.07
CC(=O)N1CC[C@@H]([C@H](C)c2ccc3[nH]c(C(=O)Nc4cc(F)cc(F)c4)cc3c2)C1 [Example 122, 5-((S)-1-((S)-1-Acetylpyrrolidin-3-yl)ethyl)-N-(3,5-difluorophenyl)-1H-indole-2-carboxamide]	5.68
CC(c1ccc2[nH]c(C(=O)Nc3cc(F)cc(F)c3)cc2c1)N1CCCCC1=O (centres unmarked) [Example 89, 5-[1-(2-Oxo-piperidin-1-yl)-ethyl]-1H-indole-2-carboxylic acid (3,5-difluoro-phenyl)-amide]	5.36
N#CCN1CCC(c2ccc3c(c2)cc(C(=O)Nc2cncc(F)c2)n3CC#N)C1 (centres unmarked) [Example 81, 1-Cyanomethyl-5-(1-cyanomethyl-pyrrolidin-3-yl)-1H-indole-2-carboxylic acid (5-fluoro-pyridin-3-yl)-amide]	5.37
CC(C)N1CCC(Nc2ccc3[nH]c(C(=O)Nc4ccc(F)c(F)c4)cc3c2)CC1 [Example 65, 5-(1-Isopropyl-piperidin-4-ylamino)-1H-indole-2-carboxylic acid (3,4-difluoro-phenyl)-amide]	5.53
CC(C)C1(c2ccc3[nH]c(C(=O)Nc4ccc(F)c(F)c4)cc3c2)CNC(=O)C1 (centres unmarked) [Example 18, 5-(3-Isopropyl-5-oxo-pyrrolidin-3-yl)-1H-indole-2-carboxylic acid (3,4-difluoro-phenyl)-amide]	5.63

Second part, the molecule after the results:

pEC50	SMILES
6.20	O=C(Nc1cccc(F)c1)c1cc2cc(C3CCNC3)ccc2[nH]1 (centres unmarked) [Example 8, N-(3-Fluorophenyl)-5-(pyrrolidin-3-yl)-1H-indole-2-carboxamide]
6.39	O=C(Nc1cc(F)cc(F)c1)c1cc2cc(C3CCCN(C(=O)C4CC4)C3)ccc2[nH]1 (centres unmarked) [Example 54, 5-(1-Cyclopropanecarbonyl-piperidin-3-yl)-1H-indole-2-carboxylic acid (3,5-difluoro-phenyl)-amide]
6.09	CCN1CCCC(c2ccc3[nH]c(C(=O)Nc4cccc(F)c4)cc3c2)C1 (centres unmarked) [Example 70, 5-(1-Ethylpiperidin-3-yl)-N-(3-fluorophenyl)-1H-indole-2-carboxamide]
5.84	COCCN1CCC(c2ccc3[nH]c(C(=O)Nc4ccc(F)cc4)cc3c2)CC1 [Example 37, 5-[1-(2-Methoxy-ethyl)-piperidin-4-yl]-1H-indole-2-carboxylic acid (4-fluoro-phenyl)-amide]
6.10	CC(C)N1CCC(c2ccc3[nH]c(C(=O)Nc4cncc(F)c4)cc3c2)C1 (centres unmarked) [Example 76, N-(5-Fluoropyridin-3-yl)-5-(1-isopropylpyrrolidin-3-yl)-1H-indole-2-carboxamide]
5.90	O=C(Nc1cccc(F)c1)c1cc2cc(C3CCN(CC(F)(F)F)C3)ccc2[nH]1 (centres unmarked) [Example 15, N-(3-Fluorophenyl)-5-(1-(2,2,2-trifluoroethyl)pyrrolidin-3-yl)-1H-indole-2-carboxamide]
5.75	CC(=O)N1CCC[C@@H](c2ccc3[nH]c(C(=O)Nc4cc(F)cc(F)c4)cc3c2)C1 [Example 113, 5-((S)-1-Acetyl-piperidin-3-yl)-1H-indole-2-carboxylic acid (3,5-difluoro-phenyl)-amide]
5.72	CCN1CCC(c2ccc3[nH]c(C(=O)Nc4ccc(F)cc4)cc3c2)CC1 [Example 42, 5-[1-Ethyl-piperidin-4-yl]-1H-indole-2-carboxylic acid (4-fluoro-phenyl)-amide]
6.33	N#CCN1CC[C@@H](c2ccc3[nH]c(C(=O)Nc4cccc(F)c4)cc3c2)C1 [Example 109, (S)-5-(1-(Cyanomethyl)pyrrolidin-3-yl)-N-(3-fluorophenyl)-1H-indole-2-carboxamide]

Same assay, conditions: human neuroglioma H4 cells overexpressing human APP, 22 hours incubation

pEC50	SMILES
6.75	CN1CCC(c2ccc3[nH]c(C(=O)Nc4cc(F)cc(F)c4)cc3c2)C1 (centres unmarked) [Example 2, 5-(1-Methyl-pyrrolidin-3-yl)-1H-indole-2-carboxylic acid (3,5-difluoro-phenyl)-amide]
6.52	CN1CC[C@@H](c2ccc3[nH]c(C(=O)Nc4cc(F)cc(F)c4)cc3c2)C1 [Example 102, 5-((S)-1-Methyl-pyrrolidin-3-yl)-1H-indole-2-carboxylic acid (3,5-difluoro-phenyl)-amide]
6.20	CC(C)S(=O)(=O)N1CCC(c2ccc3[nH]c(C(=O)Nc4cc(F)cc(F)c4)cc3c2)C1 (centres unmarked) [Example 107]

Reference: patent US20150274661A1, “INDOL-AMIDE COMPOUNDS AS BETA-AMYLOID INHBITORS” (Hoffmann-La Roche Inc., priority 2012, published 2015)
